Data from US20090270435A1 (priority 2006, published 2009).
Structures can show the parent of a compound that is named as a salt.

Columns and labels:
[1] = molecular target: T1, ACC1 from rat liver (Rattus norvegicus, UniProt P11497); assay: Direct inhibition of ACC1 activity (14C-bicarbonate incorporation); assay type: biochemical
T1 construct: The livers (for ACC1 preparation) or skeletal muscle tissue (for ACC2 preparation) are removed; from tissue; host or cells: liver of male CD rats (fasted, then fed a high sucrose diet)
Outline: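 ACC1 partially purified from livers of fasted/sucrose-refed male rats by PEG and ammonium sulfate fractionation, then preincubated 30 min at 37°C with 10 mM citrate and 1.0 mM MgCl2. Reaction ran 7 min at 37°C, stopped with HCl; acid-stable radioactivity counted by scintillation; HCl-first tubes served as blanks.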

[2] = molecular target: T2, ACC2 from rat skeletal muscle (Rattus norvegicus, UniProt Q1HEC0); assay: Direct inhibition of ACC2 activity (14C-bicarbonate incorporation); assay type: biochemical
T2 construct: The livers (for ACC1 preparation) or skeletal muscle tissue (for ACC2 preparation) are removed; from tissue; host or cells: skeletal muscle of male CD rats (fasted, then fed a high sucrose diet)
T2 sequence (Q1HEC0 17-2455): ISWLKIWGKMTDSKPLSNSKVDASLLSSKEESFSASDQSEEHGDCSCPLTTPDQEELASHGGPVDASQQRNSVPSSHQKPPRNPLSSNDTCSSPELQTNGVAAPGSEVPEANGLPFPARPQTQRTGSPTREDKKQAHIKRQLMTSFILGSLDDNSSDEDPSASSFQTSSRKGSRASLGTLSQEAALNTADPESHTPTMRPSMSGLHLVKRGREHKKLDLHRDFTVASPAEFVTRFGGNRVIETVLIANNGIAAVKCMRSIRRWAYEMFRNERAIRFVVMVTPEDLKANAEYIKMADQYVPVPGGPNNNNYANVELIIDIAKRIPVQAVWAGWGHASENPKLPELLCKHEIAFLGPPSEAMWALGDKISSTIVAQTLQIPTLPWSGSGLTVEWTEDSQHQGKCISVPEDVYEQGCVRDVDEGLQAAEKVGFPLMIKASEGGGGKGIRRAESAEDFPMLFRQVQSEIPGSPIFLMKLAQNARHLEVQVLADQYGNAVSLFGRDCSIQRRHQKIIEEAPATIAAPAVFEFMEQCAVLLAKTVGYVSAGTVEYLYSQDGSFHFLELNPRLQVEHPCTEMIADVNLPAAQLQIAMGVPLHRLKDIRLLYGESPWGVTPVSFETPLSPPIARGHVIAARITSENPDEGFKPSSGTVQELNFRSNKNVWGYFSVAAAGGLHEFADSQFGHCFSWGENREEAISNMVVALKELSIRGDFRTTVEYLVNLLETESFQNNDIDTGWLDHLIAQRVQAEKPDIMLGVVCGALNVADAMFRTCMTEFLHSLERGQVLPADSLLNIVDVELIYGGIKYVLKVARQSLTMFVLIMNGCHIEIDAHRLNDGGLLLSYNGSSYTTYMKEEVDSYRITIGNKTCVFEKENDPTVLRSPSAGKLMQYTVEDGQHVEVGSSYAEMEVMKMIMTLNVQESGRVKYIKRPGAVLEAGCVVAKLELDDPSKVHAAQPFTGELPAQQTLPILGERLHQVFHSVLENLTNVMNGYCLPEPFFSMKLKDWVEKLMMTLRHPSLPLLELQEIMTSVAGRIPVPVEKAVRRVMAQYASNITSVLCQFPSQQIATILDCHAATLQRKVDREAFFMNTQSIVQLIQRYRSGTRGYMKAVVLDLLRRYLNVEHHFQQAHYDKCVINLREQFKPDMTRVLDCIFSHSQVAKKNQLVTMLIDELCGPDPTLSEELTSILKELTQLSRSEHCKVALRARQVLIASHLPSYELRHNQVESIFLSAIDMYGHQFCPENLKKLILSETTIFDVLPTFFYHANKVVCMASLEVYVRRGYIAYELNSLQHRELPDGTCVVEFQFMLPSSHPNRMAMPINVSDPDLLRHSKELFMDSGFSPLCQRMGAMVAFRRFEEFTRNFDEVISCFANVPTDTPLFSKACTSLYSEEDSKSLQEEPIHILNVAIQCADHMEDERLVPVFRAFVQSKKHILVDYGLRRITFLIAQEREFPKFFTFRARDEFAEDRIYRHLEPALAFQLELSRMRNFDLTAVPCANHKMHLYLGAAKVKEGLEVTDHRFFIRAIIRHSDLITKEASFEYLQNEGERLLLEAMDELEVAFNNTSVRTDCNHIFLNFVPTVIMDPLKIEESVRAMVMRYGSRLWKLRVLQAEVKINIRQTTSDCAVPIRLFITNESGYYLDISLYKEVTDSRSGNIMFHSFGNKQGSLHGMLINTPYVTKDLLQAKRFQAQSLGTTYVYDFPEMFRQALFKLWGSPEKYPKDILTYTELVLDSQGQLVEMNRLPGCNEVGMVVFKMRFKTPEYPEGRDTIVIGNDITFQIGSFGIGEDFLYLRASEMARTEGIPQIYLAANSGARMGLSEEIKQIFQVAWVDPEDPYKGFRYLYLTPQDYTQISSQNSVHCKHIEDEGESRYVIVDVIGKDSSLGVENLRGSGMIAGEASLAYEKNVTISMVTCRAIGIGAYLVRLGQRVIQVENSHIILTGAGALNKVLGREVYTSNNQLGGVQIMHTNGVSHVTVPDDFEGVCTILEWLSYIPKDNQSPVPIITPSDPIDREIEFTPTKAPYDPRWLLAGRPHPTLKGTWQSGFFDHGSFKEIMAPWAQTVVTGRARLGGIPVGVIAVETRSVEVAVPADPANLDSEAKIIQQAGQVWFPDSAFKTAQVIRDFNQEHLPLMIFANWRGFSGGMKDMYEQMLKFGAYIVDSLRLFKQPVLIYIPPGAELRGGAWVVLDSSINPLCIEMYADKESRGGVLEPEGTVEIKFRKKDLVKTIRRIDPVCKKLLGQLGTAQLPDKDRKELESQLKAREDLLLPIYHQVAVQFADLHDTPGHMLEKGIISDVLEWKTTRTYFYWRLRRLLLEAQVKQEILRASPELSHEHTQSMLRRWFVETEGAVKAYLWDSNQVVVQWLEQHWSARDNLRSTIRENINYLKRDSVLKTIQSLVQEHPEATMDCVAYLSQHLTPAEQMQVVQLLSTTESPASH
Experimental: For example direct inhibition of ACC1 and ACC2 activity, for compounds of Formula (1) were determined using preparations of ACC1 from rat liver and ACC2 from rat skeletal muscle.
[1] Preparation of ACC1 and ACC2. ACC1 was obtained from rat liver and ACC2 was obtained from rat skeletal muscle based upon standard procedures such as those described by Thampy and Wakil (J. Biol. Chem. 260: 6318-6323; 1985) using the following method.
Male CD rats weighing 150-200 g are fasted for 2 days and then fed a high sucrose diet (AIN-76A rodent diet; Cat # D10001, Research Diets Inc., New Brunswick, N.J.), for 3 days at which time they are sacrificed by CO2 asphyxiation. The livers (for ACC1 preparation) or skeletal muscle tissue (for ACC2 preparation) are removed, rinsed in ice-cold phosphate-buffered saline (PBS), and homogenized in 5 volumes of homogenization buffer (50 mM potassium phosphate, pH 7.5, 10 mM EDTA, 10 mM 2-mercaptoethanol, 2 mM benzamidine, 0.2 mM phenylmethylsulfonylfluoride (PMSF), 5 mg/L each leupeptin, aprotinin, and antitrypsin) in a Waring® blender for 1 minute at 4° C. All subsequent operations are carried out at 4° C. The homogenate is made 3% with respect to polyethylene glycol (PEG) by the addition of 50% PEG solution and centrifuged at 20,000×g for 15 minutes. The resulting supernatant is adjusted to 5% PEG with the addition of 50% PEG solution and stirred for 5 minutes. The pellet (contains ACC activity) is collected by centrifugation at 20,000×g for 20 minutes, rinsed with Ice-cold doubly distilled water to remove excess PEG and re-suspended in one-fourth the original homogenate volume with homogenization buffer. Ammonium sulfate (200 g/liter) is slowly added with stirring. After 45 minutes the enzyme is collected by centrifugation for 30 minutes at 20,000×g, re-suspended in 10 ml of 50 mM HEPES, pH7.5, 0.1 mM DTT, 1.0 mM EDTA, and 10% glycerol and desalted on a Sephadex™ G-25 column (2.5 cm-x 50 cm) (Pharmacia, Piscataway N.J. now GE Healthcare) […] equilibrated with the same buffer. The desalted enzyme preparation is stored in aliquots at −70° C. Immediately prior to use, frozen ACC1 or ACC2 aliquots are thawed, diluted to 500 μg/ml in buffer containing 50 mM HEPES, pH7.5, 1.0 mM MgCl2, 10 mM tripotassium citrate, 2.0 mM dithiothreitol (DTT), and 0.75 mg/ml fatty acid-free bovine serum albumin (BSA) and pre-incubated at 37° C. for 30 minutes.
[2] Measurement of ACC inhibition. The procedures for measuring ACC1 inhibition and ACC2 inhibition are identical except for the source of the isozyme. For measurement of ACC activity and assessment of ACC inhibition, test compounds are dissolved in dimethylsulfoxide (DMSO) and 1 μL aliquots are placed in 0.5 ml polypropylene tubes. Control tubes contain 1 μL of DMSO alone. Tubes are incubated at 37° C. in a constant temperature water bath. […] The reaction is then initiated by the addition of 10 μL of preincubated ACC fraction prepared as described above. After 7 minutes the reaction is terminated by the addition of 50 μL of 6N HCl and a 150 μL aliquot of the reaction mixture is transferred to glass scintillation vials and evaporated to dryness at 90° C. for at least 1 hour. The dried vials are then cooled, 0.5 ml of water and 5.5 ml of Ready Safe liquid scintillation fluid (Beckman Coulter Inc., Fullerton, Calif.) are added, and the radioactivity is determined using a liquid scintillation counter. Tubes that received HCl before ACC served as blanks.
[3] Specificity for ACC1 vs ACC2 inhibition. The specificity of a compound for Inhibiting ACC1 vs ACC2 can be determined by comparing the concentration of test compound required to inhibit 50% of the activity contained in an aliquot of ACC1 as compared with the concentration of the same compound required to inhibit 50% of the activity of an aliquot of ACC2.

Row | Structure (SMILES) | IC50 ([1]; ACC1 from rat liver) | IC50 ([2]; ACC2 from rat skeletal muscle) | further results
1 | Cc1cc(C(=O)N2CCC3(CC2)CC(=O)c2cc(OC(C)C)ccc2O3)cc2cn[nH]c12 [Ex. A3, 6-isopropoxy-1′-[(7-methyl-1H-indazol-5-yl)carbonyl]spiro[chromene-2,4′-piperidin]-4(3H)-one] | 14.5 nM | 17.2 nM | –
2 | CCOc1ccc2c(c1)C(=O)CC1(CCN(C(=O)c3cc(C)c4[nH]ncc4c3)CC1)O2 [Ex. A4, 6-ethoxy-1′-[(7-methyl-1H-indazol-5-yl)carbonyl]spiro[chromene-2,4′-piperidin]-4(3H)-one] | 19.5 nM | 29.9 nM | –
3 | COc1ccc2c(c1)C(=O)CC1(CCN(C(=O)c3cc(C)c4[nH]ncc4c3)CC1)O2 [Ex. A7, 6-methoxy-1′-[(7-methyl-1H-indazol-5-yl)carbonyl]spiro[chromene-2,4′-piperidin]-4(3H)-one trifluoroacetic acid salt] | 32.5 nM | 138 nM | –
4 | CC(C)Oc1ccc2c(c1)C(=O)CC1(CCN(C(=O)c3cc(Cl)c4[nH]ncc4c3)CC1)O2 [Ex. B2, 1′-[(7-chloro-1H-indazol-5-yl)carbonyl]-6-isopropoxyspiro[chromene-2,4′-piperidin]-4(3H)-one] | 16.1 nM | 31.1 nM | –
5 | CCOc1ccc2c(c1)C(=O)CC1(CCN(C(=O)c3cc(Cl)c4[nH]ncc4c3)CC1)O2 [Ex. B3, 1′-[(7-chloro-1H-indazol-5-yl)carbonyl]-6-ethoxyspiro[chromene-2,4′-piperidin]-4(3H)-one] | 21.4 nM | 34.3 nM | –
6 | Cc1cc2c(cc1Cl)C(=O)CC1(CCN(C(=O)c3cc(Cl)c4[nH]ncc4c3)CC1)O2 [Ex. B4, 6-chloro-7-methyl-1′-[(7-chloro-1H-indazol-5-yl)carbonyl]spiro[chromene-2,4′-piperidin]-4(3H)-one] | 56.8 nM | 127 nM | –
7 | COc1ccc2c(c1)C(=O)CC1(CCN(C(=O)c3cc(Cl)c4[nH]ncc4c3)CC1)O2 [Ex. B5, 1′-[(7-chloro-1H-indazol-5-yl)carbonyl]-6-methoxyspiro[chromene-2,4′-piperidin]-4(3H)-one] | 81 nM | 231 nM | –
8 | Cc1cc2c(cc1Cl)C(=O)CC1(CCN(C(=O)c3cccc(-c4cc[nH]n4)c3)CC1)O2 [Ex. M3, 6-chloro-7-methyl-1′-[3-(1H-pyrazol-3-yl)benzoyl]spiro[chromene-2,4′-piperidin]-4(3H)-one] | – | – | IC50 ([1]; Table of Examples M1-M36): 105 nM; IC50 ([2]; Table of Examples M1-M36): 434 nM
9 | N#Cc1ccc2c(c1)C(=O)CC1(CCN(C(=O)c3cccc(-c4cc[nH]n4)c3)CC1)O2 [Ex. M33, 4-oxo-1′-[3-(1H-pyrazol-3-yl)benzoyl]3,4-dihydrospiro[chromene-2,4′-piperidine]-6-carbonitrile] | – | – | IC50 ([1]; Table of Examples M1-M36): 816 nM; IC50 ([2]; Table of Examples M1-M36): 1860 nM
10 | Cc1cc2c(cc1C)C(=O)CC1(CCN(C(=O)c3cccc(-c4ncc[nH]4)c3)CC1)O2 [Ex. P12, 1′-[3-(1H-imidazol-2-yl)benzoyl]-6,7-dimethylspiro[chromene-2,4′-piperidin]-4(3H)-one trifluoroacetic acid salt] | – | – | IC50 ([1]; Table of Examples P1-P15): 73.9 nM
11 | Cc1cc2c(cc1C)C(=O)CC1(CCN(C(=O)c3cccc(-c4ccncn4)c3)CC1)O2 [Ex. P13, 6,7-Dimethyl 1′-[3-(pyrimidin-4-yl)benzoyl]spiro[chromene-2,4′-piperidin]-4(3H)-one] | – | – | IC50 ([1]; Table of Examples P1-P15): < 3000 nM
12 | Cc1nc(-c2cccc(C(=O)N3CCC4(CC3)CC(=O)c3cc(C)c(C)cc3O4)c2)no1 [Ex. P14, 6,7-Dimethyl-1′-[3-(5-methyl-1,2,4-oxadiazol-3-yl)benzoyl]spiro[chromene-2,4′-piperidin]-4(3H)-one] | – | – | IC50 ([1]; Table of Examples P1-P15): < 3000 nM
13 | CCc1nc(-c2cccc(C(=O)N3CCC4(CC3)CC(=O)c3cc(C)c(C)cc3O4)c2)no1 [Ex. P15, 6,7-Dimethyl-1′-[3-(5-ethyl-1,2,4-oxadiazol-3-yl)benzoyl]spiro[chromene-2,4′-piperidin]-4(3H)-one] | – | – | IC50 ([1]; Table of Examples P1-P15): 7030 nM
14 | Cc1cc2c(cc1C)C(=O)CC1(CCN(C(=O)c3ccc4c(c3)CCC(=O)N4)CC1)O2 [L44, 6,7-dimethyl-1′-[(2-oxo-1,2,3,4-tetrahydroquinolin-6-yl)carbonyl]spiro[chromene-2,4′-piperidin]-4(3H)-one] | < 3000 nM | – | –
15 | CS(=O)(=O)c1ccc2c(c1)C(=O)CC1(CCN(C(=O)c3cccc(-c4cc[nH]n4)c3)CC1)O2 [M20, 6-(methylsulfonyl)-1′-[3-(1H-pyrazol-3-yl)benzoyl]spiro[chromene-2,4′-piperidin]-4(3H)-one] | – | – | IC50 ([1]; Table of Examples M1-M36): 434 nM
16 | Cc1cc2c(c(C)c1Cl)C(=O)CC1(CCN(C(=O)c3cccc(-c4cc[nH]n4)c3)CC1)O2 [M22, 6-chloro-5,7-dimethyl-1′-[3-(1H-pyrazol-3-yl)benzoyl]spiro[chromene-2,4′-piperidin]-4(3H)-one] | – | – | IC50 ([1]; Table of Examples M1-M36): 452 nM

Continued, in another order:

Row | IC50 ([1]; ACC1 from rat liver) | IC50 ([2]; ACC2 from rat skeletal muscle) | Structure (SMILES) | further results
17 | 43.2 nM | 91.7 nM | CCOc1ccc2c(c1)C(=O)CC1(CCN(C(=O)c3cccc(-c4cc[nH]n4)c3)CC1)O2 [Ex. N2, 6-ethoxy-1′-[3-(1H-pyrazol-3-yl)benzoyl]spiro[chromene-2,4′-piperidin]-4(3H)-one] | –
18 | 48.3 nM | 54.8 nM | CC(C)Oc1ccc2c(c1)C(=O)CC1(CCN(C(=O)c3cccc(-c4cc[nH]n4)c3)CC1)O2 [Ex. N3, 6-isopropoxy-1′-[3-(1H-pyrazol-3-yl)benzoyl]spiro[chromene-2,4′-piperidin]-4(3H)-one] | –
